Read-outs that look alike come from different tables or passages of the source.
Tests used:
[1] = cited from earlier work
OATP1B1 = target: T1, OATP1B1 (Homo sapiens, UniProt Q9Y6L6); settings: Wong, 2006, Yamazaki, 2005; cited from earlier work
T1 sequence (Q9Y6L6 1-691): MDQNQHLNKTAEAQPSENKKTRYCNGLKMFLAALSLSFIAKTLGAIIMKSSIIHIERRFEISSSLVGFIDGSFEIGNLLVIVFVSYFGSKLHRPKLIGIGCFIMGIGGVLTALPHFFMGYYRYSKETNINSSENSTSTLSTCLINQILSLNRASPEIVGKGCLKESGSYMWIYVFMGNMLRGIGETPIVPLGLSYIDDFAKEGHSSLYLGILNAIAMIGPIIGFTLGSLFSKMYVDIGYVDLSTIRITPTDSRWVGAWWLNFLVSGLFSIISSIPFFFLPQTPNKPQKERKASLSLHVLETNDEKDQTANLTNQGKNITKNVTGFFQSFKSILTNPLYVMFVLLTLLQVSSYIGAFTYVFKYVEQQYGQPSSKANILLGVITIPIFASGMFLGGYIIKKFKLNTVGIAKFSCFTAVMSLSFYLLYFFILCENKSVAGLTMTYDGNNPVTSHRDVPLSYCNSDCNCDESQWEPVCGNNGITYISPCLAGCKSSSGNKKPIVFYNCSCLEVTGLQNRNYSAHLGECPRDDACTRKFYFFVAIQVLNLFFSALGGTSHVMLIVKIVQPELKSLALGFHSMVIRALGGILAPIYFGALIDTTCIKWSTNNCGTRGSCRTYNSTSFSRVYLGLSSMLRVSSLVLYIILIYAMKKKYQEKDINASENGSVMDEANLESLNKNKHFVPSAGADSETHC

P-gp = P-gp (Homo sapiens, UniProt P08183); settings: Wong, 2006, Yamazaki, 2005; cited from earlier work
Chain of P-gp (P08183 whole entry): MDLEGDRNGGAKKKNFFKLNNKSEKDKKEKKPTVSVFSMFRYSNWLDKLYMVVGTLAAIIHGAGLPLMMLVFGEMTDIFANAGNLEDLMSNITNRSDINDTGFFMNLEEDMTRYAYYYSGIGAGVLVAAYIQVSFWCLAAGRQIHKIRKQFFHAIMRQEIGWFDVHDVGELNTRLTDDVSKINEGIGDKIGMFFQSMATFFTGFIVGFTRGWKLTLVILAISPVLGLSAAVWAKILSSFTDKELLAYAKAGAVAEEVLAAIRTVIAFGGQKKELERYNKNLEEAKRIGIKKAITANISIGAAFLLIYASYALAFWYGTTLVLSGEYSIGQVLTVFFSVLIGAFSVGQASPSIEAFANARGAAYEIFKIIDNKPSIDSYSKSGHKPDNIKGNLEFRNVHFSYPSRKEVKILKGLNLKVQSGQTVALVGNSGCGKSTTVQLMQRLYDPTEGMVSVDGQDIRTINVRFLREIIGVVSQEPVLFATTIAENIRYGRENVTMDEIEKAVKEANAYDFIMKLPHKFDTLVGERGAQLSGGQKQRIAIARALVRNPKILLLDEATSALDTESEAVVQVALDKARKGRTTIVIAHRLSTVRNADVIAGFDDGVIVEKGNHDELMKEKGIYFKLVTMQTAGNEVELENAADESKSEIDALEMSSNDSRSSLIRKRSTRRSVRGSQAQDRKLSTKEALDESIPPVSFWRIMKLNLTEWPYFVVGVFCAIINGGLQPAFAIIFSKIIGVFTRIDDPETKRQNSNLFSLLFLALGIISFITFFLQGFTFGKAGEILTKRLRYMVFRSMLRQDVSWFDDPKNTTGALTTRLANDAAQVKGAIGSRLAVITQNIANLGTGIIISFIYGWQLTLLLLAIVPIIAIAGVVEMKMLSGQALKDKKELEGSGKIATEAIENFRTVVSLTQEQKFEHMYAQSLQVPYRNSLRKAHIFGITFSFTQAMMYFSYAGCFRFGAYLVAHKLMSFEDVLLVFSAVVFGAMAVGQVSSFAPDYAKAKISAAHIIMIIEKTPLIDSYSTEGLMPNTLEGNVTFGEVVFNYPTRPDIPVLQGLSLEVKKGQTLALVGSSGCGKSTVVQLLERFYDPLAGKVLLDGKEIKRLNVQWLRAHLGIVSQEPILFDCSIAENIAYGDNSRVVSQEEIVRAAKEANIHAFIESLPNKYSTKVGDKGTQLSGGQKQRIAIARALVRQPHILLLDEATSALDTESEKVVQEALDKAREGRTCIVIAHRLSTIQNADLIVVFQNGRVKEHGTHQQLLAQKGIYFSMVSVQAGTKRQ

[2] = Particle size distribution by laser beam diffraction; assay type: physicochemical
Procedure: The determination of the particle size distribution by laser beam diffraction for micronized fenofibrate was carried out using a DPS module in a particle size analyzer.
Determination of particle size distribution by laser beam diffraction was carried out for micronized fenofibrate by placing 0.5 g of the raw material in a sample holder and using a DPS module in the particle size analyzer to obtain an obscuration of 4-7%. The determination is made in duplicate.

cytochrome P450 = settings: Wong, 2006, Yamazaki, 2005; cited from earlier work

SMILES	concentrations reported in the literature ([1]; Chou, 2013)	drug-drug interaction potential by inhibition of OATP1B1 (OATP1B1)	inhibition of P-gp-mediated transport (P-gp)	particle size distribution (100%) [2]	particle size distribution (d10) [2]	particle size distribution (d50) [2]	particle size distribution (d90) [2]	metabolism via cytochrome P450 (cytochrome P450)	concentrations reported in the literature ([1]; Back, 2018, Moffat, 2011)
CC(C)c1c(C(=O)Nc2ccccc2)c(-c2ccccc2)c(-c2ccc(F)cc2)n1CC[C@@H](O)C[C@@H](O)CC(=O)O [atorvastatin]	2.5 to 50.1 ng/mL								
CC(C)OC(=O)C(C)(C)Oc1ccc(C(=O)c2ccc(Cl)cc2)cc1 [fenofibrate]		do not have a potential to cause a clinically significant drug-drug interaction by inhibition of OATP1B1	do not significantly inhibit P-gp-mediated transport	less than 30 μm	≤ 0.95 μm	≤ 5.35 μm	≤ 11.28 μm	are not metabolized via cytochrome P450	
CC(C)(Oc1ccc(C(=O)c2ccc(Cl)cc2)cc1)C(=O)O [fenofibric acid]		do not have a potential to cause a clinically significant drug-drug interaction by inhibition of OATP1B1	do not significantly inhibit P-gp-mediated transport					are not metabolized via cytochrome P450	3.17-30 μm/mL

— patent publication US20230355578A1, “PHARMACEUTICAL COMBINATIONS OF STATINS AND FIBRATES FOR THE TREATMENT AND PREVENTION OF […] AND CARDIOVASCULAR DISEASE” (LABORATORIOS SILANES S.A. DE C.V., priority 2020, published 2023)
